Experimental data reported in patent US4198429A, “Esters of 5-methyl-10,11-dihydroprostaglandin-A1” (Hoechst Aktiengesellschaft, priority 1976, dated 1980).

What was measured:
Format in all cases: in vivo, Guinea pig
[1] = test system: bronchospasm caused by histamine; assay: Bronchospasmolytic activity, modified Konzett-Rossler test, histamine-induced bronchospasm; settings: dose inhibiting effect of asthmogenic agent to 50% of initial value, male white Guinea pigs, anesthesized, V. jugularis
Experimental: (§1) To test the bronchospasmolytic activity of the compounds of the invention the following experiments were carried through:
(§2) TEST ACCORDING TO KONZETT-ROSSLER
(§3) To test the bronchospasmolytic activity the respiratory volume was measured by the method of Konzett-Rossler, according to which the air volume is measured which is taken up by the lung when the maximum inflation pressure is maintained constant and a constant volume is offered by high pressure respiration. Capacity variations in the respiratory tract result in an increase or decrease of the amount of air taken up by the lung under the given constant inflation pressure.
(§4) As test animals male white Guinea pigs having a weight of from 400 to 500 grams were used which had been anesthesized with 10 mg/kg i.p. of Evipan and 200 mg/kg i.p. of urethane. The substance to be tested was administered by means of a catheter in the V. jugularis. The positive pressure respiration depended on the normal respiratory volume of the test animal and could be adapted suitably and readily to the individual test animal. In the tests carried through the pressure indicated by Rosenthal and Dervinis of 80 mm H2 O was used. During the recovery phase after a bronchospastic reaction the flexible hose leading to the water manometer was clamped off for a short period of time in order to open deflating lung segments. The respiration frequency amounted to 64-72 per minute. The respiratory volume was measured according to the slightly modified Konzett-Rossler method wherein the piston recorder was replaced by a back-pressure tube according to Fleisch (type 0000). The occuring pressure difference was recorded by a difference pressure recorder of the type Statham PM 97 CT. To record the measured values a multi-channel recorder of Messrs. Hellige was used. The substance to be tested was used in the form of a standard solution in absolute alcohol. Directly prior to the start of the test it was diluted to the required final concentration with phosphate buffer (pH 7.4). The asthmogenic solution was prepared with double distilled water.
(§5) As asthmogenic agents histamine dihydrochloride, acetyl choline chloride and sertonine creatinine sulfate were used. To reduce the error resulting from individual differences in the bronchospasm intensity with a uniform dose of asthmogenic agent, the dosage unit was chosen such that an about 70 to 80% decrease of the absorption capacity of the lung was obtained. The experimental data were subjected to the regression analysis according to the probit transformation and the equation of the straight lines of regression y=a+b log x was calculated. In this manner the average inhibition dose (ID50 =the dose which inhibits the effect of the asthmogenic agent to 50% of the initial value) was found. Additionally, the results obtained by carrying out a simple variance analysis in the Duncan Test were compared with the control.

[2] = test system: bronchial muscles; assay: Bronchospasmolytic effect and its duration, modified Konzett-Rossler test; settings: male white Guinea pigs, anesthesized; V. jugularis; asthmogenic agent not specified
Experimental: as §1, §2, §3, §4, §5

[3] = test system: spasm caused by acetylcholine; assay: Bronchospasmolytic activity, modified Konzett-Rossler test, acetylcholine-induced bronchospasm; settings: dose inhibiting effect of asthmogenic agent to 50% of initial value, male white Guinea pigs, anesthesized, V. jugularis
Experimental: as §1, §2, §3, §4
as §5, with “Additionally, the results obtained by carrying out a simple variance analysis in the Duncan Test were compared with the control.” left out

[4] = test system: spasm initiated by serotonin; assay: Bronchospasmolytic activity, modified Konzett-Rossler test, serotonin-induced bronchospasm; settings: dose inhibiting effect of asthmogenic agent to 50% of initial value, male white Guinea pigs, anesthesized, V. jugularis
Experimental: as §1, §2, §3
as §4, with “The substance to be tested was used in the form of a standard solution in absolute alcohol. Directly prior to the start of the test it was diluted to the required final concentration with phosphate buffer (pH 7.4). The asthmogenic solution was prepared with double distilled water.” left out
As asthmogenic agents histamine dihydrochloride, acetyl choline chloride and sertonine creatinine sulfate were used. […] The experimental data were subjected to the regression analysis according to the probit transformation and the equation of the straight lines of regression y=a+b log x was calculated. […]

Structure (SMILES)	ID50 values histamine [1] [ng/animal]	duration of effect [2] [min]	ID50 values acetylcholine [3] [ng/animal]	ID50 values serotonin [4] [ng/animal]
CCCCC[C@H](O)/C=C/[C@H]1CCC(=O)[C@@H]1CCC(C)CCCC(=O)OC1CCCCC1 (stereo partly shown) [Example 6, 5-Methyl-10,11-dihydroprostaglandin-A1 cyclohexyl ester]	7.5	60		
CCCCCCOC(=O)CCCC(C)CC[C@H]1C(=O)CC[C@@H]1/C=C/[C@@H](O)CCCCC (stereo partly shown) [Example 1, 5-Methyl-10,11-dihydroproxtaglandin-A1 n-hexyl ester]	1	30	3	
CCCCC[C@H](O)/C=C/[C@H]1CCC(=O)[C@@H]1CCC(C)CCCC(=O)OCCCC(C)(C)C (stereo partly shown) [Example 4]	7	20 to 25		
CCCCC[C@H](O)/C=C/[C@H]1CCC(=O)[C@@H]1CCC(C)CCCC(=O)O (stereo partly shown) [comp. II, 5-methyl-10,11-dihydroprostaglandin-A1]	5		10	9
CCCCCCCCCCOC(=O)CCCC(C)CC[C@H]1C(=O)CC[C@@H]1/C=C/[C@@H](O)CCCCC (stereo partly shown) [Example 2, 5-Methyl-10,11-dihydroprostaglandin-A1 n-decyl ester]	4.2	30 to 45		
CCCCC[C@H](O)/C=C/[C@H]1CCC(=O)[C@@H]1CCC(C)CCCC(=O)OCCOCC (stereo partly shown) [Example 7, 5-Methyl-10,11-dihydroprostaglandin-A1-2-ethoxyethyl ester]	0.4	10 to 20	0.88	0.86
CCCCC[C@H](O)/C=C/[C@H]1CCC(=O)[C@@H]1CCC(C)CCCC(=O)OCCCc1ccccc1 (stereo partly shown) [Example 9, 5-Methyl-10,11-dihydroprostaglandin-A1-3-phenylpropyl ester]	1	25		
CCCCC[C@H](O)/C=C/[C@H]1CCC(=O)[C@@H]1CCC(C)CCCC(=O)OCCCC (stereo partly shown) [Example 3, 5-Methyl-10,11-dihydroprostaglandin-A1 n-butyl ester]	0.63	15 to 20	6.9	1.2
